From article PMC4482662, “Engineered Trehalose Permeable to Mammalian Cells” (PLoS ONE, 2015)

Key:
Water solubility = assay type: physicochemical
rat hepatocytes = experiment: Uptake and intracellular deacetylation of acetylated trehalose in cultured rat hepatocytes (trehalase assay kit, total after NaOH hydrolysis); assay type: in vitro ADME; settings: 30 mM incubation
Description: Rat hepatocytes were provided by the Cell Resource Center (CRC) at the Center for Engineering in Medicine at Massachusetts General Hospital. Briefly, hepatocytes were obtained from female Lewis rats using a two-step collagenase protocol. Two or three month old rat (Charles River Laboratories, Wilmington, MA) weighing 180–200 g were used as hepatocyte source and were maintained in accordance with National Research Council guidelines. Experimental protocols in practice at CRC for the use of hepatocytes in this study were approved by the subcommittee on Research Animal Care, Massachusetts General Hospital. Using a modification of the two-step collagenase perfusion method, which involved purification of cell suspension by means of centrifugation over Percoll, approximately 200 million hepatocytes per rat liver with 85–95% viability were routinely obtained, as evaluated by Trypan blue exclusion. Hepatocytes were kept on ice and were plated within 1 h of isolation.
For trehalose loading experiments, 6-well plates were treated with 25μg/mL fibronectin for 1 h prior to plating the hepatocytes, at which point the wells were washed with PBS and the hepatocytes were seeded at 1.2–1.3×10^6 cells/well. The cells were allowed 24–48 h to attach and spread in a 10% (v/v) CO2 incubator at 37°C before they were incubated with acetylated variants of trehalose. […]
The cell lysates were analyzed for protein content using a Bradford Commassie assay for cell count approximation. Trehalose content of cell lysates were measured using a trehalose assay kit following the manufacturer’s protocol. […] This solution was analyzed for total trehalose content against the trehalose controls prepared in a similar fashion, and the concentration was adjusted for the dilution due to addition of NaOH and HCl. To estimate the number of cells, protein content of the cell lysate was assessed using the Pierce^TM Coomassie Plus (Bradford) assay (Life Technologies, Grand Island, NY, USA). […]

Compound: CC(=O)OCC1OC(OC2OC(COC(C)=O)C(OC(C)=O)C(OC(C)=O)C2OC(C)=O)C(OC(C)=O)C(OC(C)=O)C1OC(C)=O (stereo not drawn) [8-O-Ac-Tre]
- water solubility (Water solubility): not water soluble

Compound: CC(=O)OCC1OC(OC2OC(COC(C)=O)C(O)C(O)C2O)C(O)C(O)C1O (stereo not drawn) [trehalose diacetate]
- enhancement of membrane permeability over regular trehalose (rat hepatocytes): did not observe a significant enhancement of the permeability

Compound: CC(=O)OC1C(OC2OC(CO)C(O)C(OC(C)=O)C2OC(C)=O)OC(CO)C(O)C1OC(C)=O (stereo not drawn) [4-O-Ac-Tre, trehalose tetraacetate]
- enhancement of membrane permeability over regular trehalose (rat hepatocytes): did not observe a significant enhancement of the permeability
